From USRE47689E1, “Compounds for treating spinal muscular atrophy” (PTC Therapeutics, Inc., priority 2011, dated 2019) come the findings set out here.

Data set [1] concerns SMN2 minigene (full length SMN2 minigene mRNA containing SMN2 exon 7). The data set is described as follows: SMN2 minigene mRNA splicing RT-qPCR assay in cultured cells. The class given is cell-based, human. The settings on record: Homo sapiens, HEK293-H; HEK293H cells stably transfected with SMN2-A minigene; 24 hours; 7-point concentration curve; 1.5-fold relative to vehicle-treated cells; read-out: EC1.5x for production of full length SMN2 mRNA. In a few lines: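 Read-out: full-length (exon 7-included) SMN2 minigene mRNA by multiplex RT-qPCR with GAPDH, efficiency-corrected (1+E)^−Ct, GAPDH-normalized and divided by vehicle. Stably transfected HEK293H cells, 24 h compound exposure, duplicates per concentration. Value is EC1.5x, reported as star ranges.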
(In general: In qPCR the cycle at which signal appears reflects the starting amount.)

Data set [2] concerns Smn protein. The data set is described as follows: Smn protein assay in cultured cells (SMN HTRF). The class given is cell-based, human. The settings on record: 48 hours; for maximum fold (Fold) increase of Smn protein: SMA patient fibroblast cells, 7-point concentration data, fold increase relative to vehicle control (SMN HTRF); for EC1.5x (concentration giving 1.5-fold Smn protein increase): SMA Type 1 patient fibroblast cells (GM03813), 7-point concentration curve, SMN HTRF, concentration producing 1.5 times Smn protein vs DMSO vehicle control, read-out: EC1.5x for Smn protein expression. In a few lines:
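Lysates in RIPA with protease inhibitors are incubated overnight at room temperature with HTRF anti-SMN antibodies. EC1.5x is derived from fold increase in ΔF over vehicle.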
(In general: TR-FRET usually uses a lanthanide donor and a delayed reading to cut background.)

Broadly, the melting point is the temperature of the solid-liquid transition.

For `O=c1oc2cc(CN3CCCCC3)ccc2cc1-c1nc2c(Cl)cccc2s1` [Compound 60, 3-(4-chloro-1,3-benzothiazol-2-yl)-7-(piperidin-1-ylmethyl)-2H-chromen-2-one], the melting point lay within 191 to 195 °C. The EC (1.5-fold) in data set [1] lay within 1 to 3 µM. In data set [2], the “maximum fold (Fold) increase of Smn protein” value (from here on “maximum fold (Fold) increase”) was “** (fold increase between >1.2 and ≤1.35)”.
Regarding `Cc1cc(F)c2nc(-c3cc4ccc(N5CCNC6(CCCC6)C5)cc4oc3=O)cn2c1` [Compound 599, 7-(6,9-diazaspiro[4.5]dec-9-yl)-3-(8-fluoro-6-methylimidazo[1,2-a]pyridin-2-yl)-2H-chromen-2-one], the melting point was in the range of 236 to 242 °C. Moreover, in data set [1], the EC (1.5-fold) lay within 0.1 to 0.3 µM. Also, the “maximum fold (Fold) increase” value in data set [2] was “*** (fold increase between >1.35 and ≤1.5)”.
Molecule `Cc1cn2cc(-c3cc4ccc(N5CCCN(C(C)C)CC5)cc4oc3=O)cc2c(C)n1` [Compound 754, 3-(1,3-dimethylpyrrolo[1,2-a]pyrazin-7-yl)-7-[4-(propan-2-yl)-1,4-diazepan-1-yl]-2H-chromen-2-one] yielded a melting point of 115 to 118 °C. Moreover, the EC (1.5-fold) in data set [1] is less than 0.1 µM. Besides, the “maximum fold (Fold) increase” value in data set [2] is “*** (fold increase between >1.35 and ≤1.5)”.
`Cc1cn2cc(-c3cc4ccc(O[C@@H]5CCN(CCO)C5)cc4oc3=O)nc2c(C)n1` [Compound 892, 3-(6,8-dimethylimidazo[1,2-a]pyrazin-2-yl)-7-{[(3R)-1-(2-hydroxyethyl)pyrrolidin-3-yl]oxy}-2H-chromen-2-one] had a melting point of 190 to 196 °C. The EC (1.5-fold) in data set [1] is less than 0.1 µM. Besides, in data set [2], the EC1.5x (concentration giving 1.5-fold Smn protein increase) was less than 300 nM; the “maximum fold (Fold) increase” value was “**** (fold increase between >1.5 and ≤1.65)”.
Take `Cc1cn2cc(-c3cc4ccc(N5C[C@H]6CN(C)C[C@H]6C5)cc4oc3=O)cc2c(C)n1` [Compound 756, 3-(1,3-dimethylpyrrolo[1,2-a]pyrazin-7-yl)-7-[(3aR,6aS)-5-methylhexahydropyrrolo[3,4-c]pyrrol-2(1H)-yl]-2H-chromen-2-one]: the melting point fell in the range of 146 to 150 °C. Also, the EC (1.5-fold) in data set [1] is less than 0.1 µM. Moreover, in data set [2], the “maximum fold (Fold) increase” value is “*** (fold increase between >1.35 and ≤1.5)”.
The molecule `CCc1cn2cc(-c3cc4ccc(N5CCCN(C)CC5)cc4oc3=O)nc2s1` [Compound 431, 3-(2-ethylimidazo[2,1-b][1,3]thiazol-6-yl)-7-(4-methyl-1,4-diazepan-1-yl)-2H-chromen-2-one] returned a melting point of 188 to 191 °C. Further, in data set [1], the EC (1.5-fold) lay within 1 to 3 µM. Further, in data set [2], the “maximum fold (Fold) increase” value is “* (maximum fold increase of ≤1.2)”.
In turn, `Cc1cn2cc(-c3cc4ccc(CN5CCN(C)CC5)cc4oc3=O)nc2c(C)n1` [Compound 849, 3-(6,8-dimethylimidazo[1,2-a]pyrazin-2-yl)-7-[(4-methylpiperazin-1-yl)methyl]-2H-chromen-2-one] had a melting point of 220 to 223 °C. In data set [1], the EC (1.5-fold) lay within 0.1 to 0.3 µM. In data set [2], the EC1.5x (concentration giving 1.5-fold Smn protein increase) was in the range of 300 to 1000 nM and the “maximum fold (Fold) increase” value is “***** (fold increase >1.65)”.
Regarding `CN(C)CCN(C)c1ccc2cc(-c3cn4ccsc4n3)c(=O)oc2c1` [Compound 202, 7-{[2-(dimethylamino)ethyl](methyl)amino}-3-(imidazo[2,1-b][1,3]thiazol-6-yl)-2H-chromen-2-one], the melting point lay in the range of 185 to 188 °C. Further, the EC (1.5-fold) in data set [1] lay within 0.3 to 1 µM. In addition, the “maximum fold (Fold) increase” value in data set [2] was “** (fold increase between >1.2 and ≤1.35)”.
Consider `Cc1cn2cc(-c3cc4ccc(N5CCC(N(C)C)CC5)cc4oc3=O)nc2c(C)n1` [Compound 921, 7-[4-(dimethylamino)piperidin-1-yl]-3-(6,8-dimethylimidazo[1,2-a]pyrazin-2-yl)-2H-chromen-2-one], for which the melting point lay in the range of 189 to 193 °C. Further, the EC (1.5-fold) in data set [1] is less than 0.1 µM. In data set [2], the EC1.5x (concentration giving 1.5-fold Smn protein increase) was less than 300 nM; the “maximum fold (Fold) increase” value was “**** (fold increase between >1.5 and ≤1.65)”.
`Cc1cc(F)c2nc(-c3cc4ccc(N5CCN[C@@H](C)C5)cc4oc3=O)cn2c1` [Cpd 421, 3-(8-fluoro-6-methylimidazo[1,2-a]pyridin-2-yl)-7-[(3S)-3-methylpiperazin-1-yl]-2H-chromen-2-one] returned a melting point of 250 to 255 °C. The EC (1.5-fold) in data set [1] was less than 0.1 µM. For the same molecule, in data set [2], the EC1.5x (concentration giving 1.5-fold Smn protein increase) was less than 300 nM; the “maximum fold (Fold) increase” value was “*** (fold increase between >1.35 and ≤1.5)”.
On to `Cc1cn2cc(-c3cc4ccc(CCCNC(C)CO)cc4oc3=O)nc2c(C)n1` (stereo not shown) [Compound 881, 3-(6,8-dimethylimidazo[1,2-a]pyrazin-2-yl)-7-{3-[(1-hydroxypropan-2-yl)amino]propyl}-2H-chromen-2-one], for which the melting point lay in the range of 181 to 184 °C. Moreover, in data set [1], the EC (1.5-fold) is less than 0.1 µM. For the same molecule, in data set [2], the EC1.5x (concentration giving 1.5-fold Smn protein increase) is less than 300 nM; the “maximum fold (Fold) increase” value is “**** (fold increase between >1.5 and ≤1.65)”.
Turning to `C[C@H]1CN(c2ccc3cc(-c4cc5ccccc5s4)c(=O)oc3c2)CCN1` [Compound 410, 3-(1-benzothiophen-2-yl)-7-[(3S)-3-methylpiperazin-1-yl]-2H-chromen-2-one], the melting point lay within 260 to 262 °C. Moreover, the EC (1.5-fold) in data set [1] is less than 0.1 µM. In addition, the “maximum fold (Fold) increase” value in data set [2] is recorded as “* (maximum fold increase of ≤1.2)”.
The matching figures for `COc1ccc(-c2cc3c(F)cc(N4C[C@@H]5C[C@H]4CN5)cc3oc2=O)cc1OC` [Compound 446, 7-[(1S,4S)-2,5-diazabicyclo[2.2.1]hept-2-yl]-3-(3,4-dimethoxyphenyl)-5-fluoro-2H-chromen-2-one]: 239 to 241 °C, 3 to 30 µM and “* (maximum fold increase of ≤1.2)”.
On the same counts, the results for `Cc1cc(F)cn2cc(-c3cc4ccc(N5CCNCC5)cc4oc3=O)nc12` [Compound 328, 3-(6-fluoro-8-methylimidazo[1,2-a]pyridin-2-yl)-7-(piperazin-1-yl)-2H-chromen-2-one] are 223 to 230 °C, 0.3 to 1 µM and “* (maximum fold increase of ≤1.2)”.
On the same counts, the results for `CCc1cc(C)cn2cc(-c3cc4ccc(N5CCCN(C)CC5)cc4oc3=O)nc12` [Compound 332, 3-(8-ethyl-6-methylimidazo[1,2-a]pyridin-2-yl)-7-(4-methyl-1,4-diazepan-1-yl)-2H-chromen-2-one] are 172 to 176 °C, 0.3 to 1 µM and “* (maximum fold increase of ≤1.2)”.
On to `Cc1cc(F)c2nc(-c3cc4ccc(N5CCN(C)CC5)cc4oc3=O)cn2c1` [Compound 353, 3-(8-fluoro-6-methylimidazo[1,2-a]pyridin-2-yl)-7-(4-methylpiperazin-1-yl)-2H-chromen-2-one], for which the melting point lay within 252 to 262 °C. For the same molecule, the EC (1.5-fold) in data set [1] was less than 0.1 µM. In addition, in data set [2], the EC1.5x (concentration giving 1.5-fold Smn protein increase) lay in the range of 1000 to 3000 nM; the “maximum fold (Fold) increase” value was “**** (fold increase between >1.5 and ≤1.65)”.
As for `CC1(C)CN(c2ccc3cc(-c4cn5cccc(Cl)c5n4)c(=O)oc3c2)CCN1` [Compound 249, 3-(8-chloroimidazo[1,2-a]pyridin-2-yl)-7-(3,3-dimethylpiperazin-1-yl)-2H-chromen-2-one], the melting point is 216 to 220 °C. Also, in data set [1], the EC (1.5-fold) lay in the range of 0.3 to 1 µM. The “maximum fold (Fold) increase” value in data set [2] was “** (fold increase between >1.2 and ≤1.35)”.
Molecule `CC(c1ccc2cc(-c3nc4ccccc4s3)c(=O)oc2c1)N(C)C` (stereo not shown) [Cpd 143, 3-(1,3-benzothiazol-2-yl)-7-[1-(dimethylamino)ethyl]-2H-chromen-2-one] yielded a melting point of 130 to 133 °C. Besides, the EC (1.5-fold) in data set [1] fell in the range of 1 to 3 µM. In addition, the “maximum fold (Fold) increase” value in data set [2] was “*** (fold increase between >1.35 and ≤1.5)”.
In turn, `Cc1cn2cc(-c3cc4ccc(OCCN5CCCC5)cc4oc3=O)nc2c(C)n1` [Cpd 918, 3-(6,8-dimethylimidazo[1,2-a]pyrazin-2-yl)-7-[2-(pyrrolidin-1-yl)ethoxy]-2H-chromen-2-one] came in with a melting point of 201 to 203 °C. The EC (1.5-fold) in data set [1] was less than 0.1 µM. In data set [2], the EC1.5x (concentration giving 1.5-fold Smn protein increase) lay within 300 to 1000 nM; the “maximum fold (Fold) increase” value was “**** (fold increase between >1.5 and ≤1.65)”.
For the molecule `O=c1oc2cc(N3CCNCC3)ccc2cc1-c1cc2ncccn2c1` [Cpd 579, 7-(piperazin-1-yl)-3-(pyrrolo[1,2-a]pyrimidin-7-yl)-2H-chromen-2-one], the melting point fell in the range of 235 to 238 °C. The EC (1.5-fold) in data set [1] was in the range of 0.3 to 1 µM. The “maximum fold (Fold) increase” value in data set [2] is reported as “* (maximum fold increase of ≤1.2)”.
In the case of `CN(C)c1ccc(-c2cc3ccc(N4CCNCC4)cc3oc2=O)cn1` [Compound 547, 3-[6-(dimethylamino)pyridin-3-yl]-7-(piperazin-1-yl)-2H-chromen-2-one], the melting point lay in the range of 179 to 181 °C. Moreover, in data set [1], the EC (1.5-fold) is 3 to 30 µM. Besides, in data set [2], the “maximum fold (Fold) increase” value is given as “* (maximum fold increase of ≤1.2)”.
